By Ki is commonly meant a dissociation constant, usually derived from enzyme kinetics or from competition with a known ligand.

For assay [1], the target named is T1, human D3 dopamine receptor (Homo sapiens, UniProt P35462).
T1 construct: expressed in transfected cells; host or cells: HEK-293 EBNA cells (transient transfection; membrane preparation)
Kind of assay: Radioligand binding to cloned human D3 receptor ([3H]-spiperone). The settings on record: first value of D3/5HT2A/D2; membranes of transfected HEK-293 EBNA cells, 0.5 nM [3H]-spiperone, 1 h at RT. On the procedure:
(§1) The ability of compounds of the present invention to bind to the 5-HT2A, D3 and D2 receptors was determined using radioligand binding to cloned receptors selectively expressed in HEK-293 EBNA cells.
(§2) Membrane Preparation for Human D2, Human D3 and Human 5-HT2A Receptors
(§3) HEK-293 EBNA cells were transiently transfected with expression plasmids encoding for the human D2 or D3 dopamine- or for the human 5-HT2A serotonin receptor, respectively. The cells were harvested 48 hours post-transfection, washed three times with cold phosphate buffered saline (PBS) and stored at −80° C. prior to use. The pellet was suspended in cold 50 mM Tris-HCl buffer containing 10 mM EDTA (pH 7.4) and homogenized with a Polytron (Kinematica AG, Basel, Switzerland) for 20-30 seconds at 12.000 rpm. After centrifugation at 48.000×g for 30 minutes at 4° C., the pellet was resuspended in cold 10 mM Tris-HCl buffer containing 0.1 mM EDTA (pH 7.4), homogenized, and centrifuged as above. This pellet was further resuspended in a smaller volume of ice cold 10 mM Tris-HCl buffer containing 0.1 mM EDTA (pH 7.4) and homogenized with a Polytron for 20-30 sec at 12.000 rpm. The protein content of this homogenate was determined with the Bio-Rad (Bradford) Protein Assay (Biorad Laboratories GmbH, München, Germany) according to the instructions of the manufacturer using gamma globulin as the standard. This homogenate was stored at −80° C. in aliquots and thawed immediately prior to use.
(§4) Radioligand Binding Assay Conditions
(§5) Aliquots of membrane preparations were thawed at room temperature, resuspended in assay buffer (D2, D3: 50 mM Tris-HCl, 120 mM NaCl, 5 mM MgCl2, 1 mM EDTA, 5 mM KCl, 1.5 mM CaCl2, pH=7.4; 5-HT2A: 50 mM Tris-HCl, 10 mM MgCl2, 1 mM EGTA, pH=7.4), homogenized with a Polytron for 20-30 seconds at 12.000 rpm and adjusted to a final concentration of approximately 7.5 μg protein/well (D2, D3) and 15 μg protein/well (5-HT2A), respectively.
(§6) The binding affinity (Ki) of the compounds was determined using radioligand binding. Membranes were incubated in a total volume of 200 μl with a fixed concentration of radioligand (final concentration approximately 0.7 nM [^3H]-spiperone for D2, 0.5 nM [^3H]-spiperone for D3, and 1.1 nM [^3H]-ketanserin for 5-HT2A) and ten concentrations of test compound ranging between 10 μM-0.1 nM for 1 h at RT. At the end of the incubation, the reaction mixtures were filtered on to unifilter 96-well white microplates with bonded GF/C filters (Packard BioScience, Zudrich, Switzerland; preincubated for 1 h in 0.1% polyethylenimine (PEI) in assay buffer) with a Filtermate 196 harvester (Packard BioScience) and washed 3 times with cold assay buffer. The nonspecific binding was determined with equally composed reaction mixtures in the presence of 10 μM unlabelled spiperone. Per well 45 μl of Microscint 40 (Perkin Elmer, Schwerzenbach, Switzerland) was added, plates for sealed, shaken for 20 min and counted for 3 minutes on a Topcount Microplate Scintillation Counter (Can berra Packard SA, Zu-rich, Switzerland) with quenching correction.
(§7) The CPM value for each duplicate of a concentration of competing compound was averaged (y1), then the % specific binding was calculated according to the equation (((y1−non-specific)/(total binding-non-specific))×100). Graphs were plotted with the % specific binding using XLfit, a curve fitting program that iteratively plots the data using Levenburg Marquardt algorithm. The single site competition analysis equation used was y=A+((B−A)/(1+((x/C)^D))), where y is the % specific binding, A is the minimum y, B is the maximum y, C is the IC50, x is the log10 of the concentration of the competing compound and D is the slope of the curve (the Hill Coefficient). From these curves the IC50 (inhibition concentration at which 50% specific binding of the radioligand was displaced) and Hill coefficient were determined. […]

Assay [2] addresses T2, human 5-HT2A serotonin receptor (Homo sapiens, UniProt P28223).
T2 construct: expressed in transfected cells; host or cells: HEK-293 EBNA cells (transient transfection; membrane preparation)
Kind of assay: Radioligand binding to cloned human 5-HT2A receptor ([3H]-ketanserin). As to conditions: second value of D3/5HT2A/D2; membranes of transfected HEK-293 EBNA cells, 1.1 nM [3H]-ketanserin, 1 h at RT. The procedure: as §1, §2, §3, §4, §5, §6, §7

Assay [3] deals with T3, human D2 dopamine receptor (Homo sapiens, UniProt P14416).
T3 construct: expressed in transfected cells; host or cells: HEK-293 EBNA cells (transient transfection; membrane preparation)
Description: Radioligand binding to cloned human D2 receptor ([3H]-spiperone). The settings on record: third value of D3/5HT2A/D2; membranes of transfected HEK-293 EBNA cells, 0.7 nM [3H]-spiperone, 1 h at RT. On the procedure: as §1, §2, §3, §4, §5, §6, §7

T1 sequence (P35462 whole entry): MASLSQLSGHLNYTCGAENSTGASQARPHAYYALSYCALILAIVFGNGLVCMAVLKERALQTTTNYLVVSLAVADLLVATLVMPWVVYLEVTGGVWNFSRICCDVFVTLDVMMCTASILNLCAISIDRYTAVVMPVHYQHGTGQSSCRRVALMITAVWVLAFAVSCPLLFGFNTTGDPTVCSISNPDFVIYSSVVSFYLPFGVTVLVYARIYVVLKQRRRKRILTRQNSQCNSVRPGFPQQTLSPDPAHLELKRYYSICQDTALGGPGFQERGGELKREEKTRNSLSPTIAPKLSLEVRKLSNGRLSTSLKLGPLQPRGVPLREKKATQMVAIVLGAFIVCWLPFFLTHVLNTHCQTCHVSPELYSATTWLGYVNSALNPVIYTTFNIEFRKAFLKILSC
T2 sequence (P28223 whole entry): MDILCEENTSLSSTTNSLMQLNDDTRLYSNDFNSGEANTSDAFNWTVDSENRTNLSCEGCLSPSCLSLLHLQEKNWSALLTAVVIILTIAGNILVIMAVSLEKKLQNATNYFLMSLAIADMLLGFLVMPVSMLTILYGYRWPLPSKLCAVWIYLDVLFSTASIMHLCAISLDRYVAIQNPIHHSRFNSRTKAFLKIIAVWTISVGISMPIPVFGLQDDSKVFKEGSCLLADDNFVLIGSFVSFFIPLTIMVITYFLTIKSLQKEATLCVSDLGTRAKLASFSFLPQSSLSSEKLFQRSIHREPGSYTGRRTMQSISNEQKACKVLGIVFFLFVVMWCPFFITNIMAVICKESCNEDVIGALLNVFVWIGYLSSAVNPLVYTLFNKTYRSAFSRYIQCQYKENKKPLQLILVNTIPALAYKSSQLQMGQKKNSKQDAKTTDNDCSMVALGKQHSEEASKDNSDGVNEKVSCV
T3 sequence (P14416 whole entry): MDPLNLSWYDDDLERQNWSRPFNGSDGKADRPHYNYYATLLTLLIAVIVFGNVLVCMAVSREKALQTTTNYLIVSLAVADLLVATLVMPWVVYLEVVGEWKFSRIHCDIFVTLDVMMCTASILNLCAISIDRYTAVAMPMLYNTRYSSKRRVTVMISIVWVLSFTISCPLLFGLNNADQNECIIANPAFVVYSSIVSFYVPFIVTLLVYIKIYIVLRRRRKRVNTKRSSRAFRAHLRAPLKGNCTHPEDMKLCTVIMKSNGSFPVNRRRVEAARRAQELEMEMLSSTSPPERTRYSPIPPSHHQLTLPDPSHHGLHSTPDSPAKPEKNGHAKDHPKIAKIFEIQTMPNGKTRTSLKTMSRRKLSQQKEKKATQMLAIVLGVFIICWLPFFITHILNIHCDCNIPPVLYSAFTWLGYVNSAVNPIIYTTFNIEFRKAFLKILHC

As to `COCCC(=O)N[C@H]1CC[C@H](CCN2CCC(Oc3ccc(F)cc3)CC2)CC1` [Example 3, N-(trans-4-{2-[4-(4-Fluoro-phenoxy)-piperidin-1-yl]-ethyl}-cyclohexyl)-3-methoxy-propionamide], the inhibition constant Ki in assay [1] stood at 48 nM; in assay [2], 22 nM; in assay [3] it was 1470 nM.
Regarding `CC(=O)N[C@H]1CC[C@H](CCN2CCC(Oc3ccc(F)cc3)CC2)CC1` [Example 8, Trans N-(4-{2-[4-(4-Fluoro-phenoxy)-piperidin-1-yl]-ethyl}-cyclohexyl)-acetamide], the Ki in assay [1] stood at 50 nM; in assay [2], 31 nM; in assay [3] it was 843 nM.
In the same order, the values of `O=C(Nc1ccc(Cl)cc1)N[C@H]1CC[C@H](CCN2CCC(Oc3ccc(F)cc3)CC2)CC1` [Example 9, Trans-1-(4-Chloro-phenyl)-3-(4-{2-[4-(4-fluoro-phenoxy)-piperidin-1-yl]-ethyl}-cyclohexyl)-urea] are 14 nM, 13 nM and 574 nM.
In the same order, the values of `Cc1ccc(NC(=O)N[C@H]2CC[C@H](CCN3CCC(Oc4ccc(F)cc4)CC3)CC2)cc1` [Example 10, Trans-1-(4-{2-[4-(4-Fluoro-phenoxy)-piperidin-1-yl]-ethyl}-cyclohexyl)-3-p-tolyl-urea] are 16 nM, 22 nM and 592 nM.
In the same order, the values of `O=C(N[C@H]1CC[C@H](CCN2CCC(Oc3ccc(F)cc3Cl)CC2)CC1)c1ccnc2ccccc12` [Example 11, Quinoline-4-carboxylic acid trans(4-{2[4-(2-chloro-4-fluoro-phenoxy)-piperidin-1-yl]-ethyl}-cyclohexyl)-amide] are 17 nM, 2 nM and 321 nM.
In the case of `COCCC(=O)N[C@H]1CC[C@H](CCN2CCC(Oc3ccc(F)cc3Cl)CC2)CC1` [Example 13, N-trans (4-{2-[4-(2-Chloro-4-fluoro-phenoxy)-piperidin-1-yl]-ethyl}-cyclohexyl)-3-methoxy-propionamide], the Ki worked out at 14 nM in assay [1], 3 nM in assay [2] and 790 nM in assay [3].
On to `O=C(N[C@H]1CC[C@H](CCN2CCC(Oc3ccc(F)cc3Cl)CC2)CC1)C1CCOCC1` [Example 15, Tetrahydro-pyran-4-carboxylic acid trans (4-{2-[4-(2-chloro-4-fluoro-phenoxy)-piperidin-1-yl]-ethyl}-cyclohexyl)-amide], for which the Ki in assay [1] is 17 nM; in assay [2] it was 2 nM; in assay [3], 556 nM.
In the same order, the values of `Cc1nc(-c2cccc(C(=O)N[C@H]3CC[C@H](CCN4CCC(Oc5ccc(F)cc5Cl)CC4)CC3)c2)no1` [Example 16, N-trans (4-{2-[4-(2-Chloro-4-fluoro-phenoxy)-piperidin-1-yl]-ethyl}-cyclohexyl)-3-(5-methyl-[1,2,4]oxadiazol-3-yl)-benzamide] are 11 nM, 5 nM and 553 nM.
In the same order, the values of `CCC(=O)N[C@H]1CC[C@H](CCN2CCC(Oc3ccc(F)cc3Cl)CC2)CC1` [Example 18, N-trans (4-{2-[4-(2-Chloro-4-fluoro-phenoxy)-piperidin-1-yl]-ethyl}-cyclohexyl)-propionamide] are 5 nM, 2 nM and 604 nM.
In the same order, the values of `CC(=O)N[C@H]1CC[C@H](CCN2CCC(Oc3ccc(F)cc3Cl)CC2)CC1` [Example 19, N-trans(4-{2-[4-(2-Chloro-4-fluoro-phenoxy)-piperidin-1-yl]-ethyl}-cyclohexyl)-acetamide] are 12 nM, 3 nM and 683 nM.
Consider `Cc1ccc(NC(=O)N[C@H]2CC[C@H](CCN3CCC(Oc4ccc(F)cc4Cl)CC3)CC2)cc1` [Example 21, 1-trans(4-{2-[4-(2-Chloro-4-fluoro-phenoxy)-piperidin-1-yl]-ethyl}-cyclohexyl)-3-p-tolyl-urea], for which the Ki in assay [1] amounted to 3 nM; in assay [2] it was 2 nM; in assay [3], 697 nM.
In the same order, the values of `O=C(N[C@H]1CC[C@H](CCN2CCC(Oc3ccc(F)cc3F)CC2)CC1)c1ccnc2ccccc12` [Example 24, Quinoline-4-carboxylic acid trans(4-{2-[4-(2,4-difluoro-phenoxy)-piperidin-1-yl]-ethyl}-cyclohexyl)-amide] are 8 nM, 3 nM and 453 nM.
In the same order, the values of `O=C(N[C@H]1CC[C@H](CCN2CCC(Oc3cc(F)c(F)cc3F)CC2)CC1)C1CCOCC1` [Example 51, Tetrahydro-pyran-4-carboxylic acid trans(4-{2-[4-(2,4,5-trifluoro-phenoxy)-piperidin-1-yl]-ethyl}-cyclohexyl)-amide] are 29 nM, 36 nM and 638 nM.
Consider `CC(=O)N[C@H]1CC[C@H](CCN2CCC(Oc3ccc(Cl)cc3C#N)CC2)CC1` [Example 62, N-trans-(4-{2-[4-(4-Chloro-2-cyano-Phenoxy)-piperidin-1-yl]-ethyl}-cyclohexyl)-acetamide], for which the Ki in assay [1] came to 100 nM; in assay [2] it was 43 nM; in assay [3] it was 3320 nM.
With `O=C(N[C@H]1CC[C@H](CCN2CCC(Oc3cccc(Cl)c3Cl)CC2)CC1)c1ccnc2ccccc12` [Example 72, Quinoline-4-carboxylic acid trans(4-{2-[4-(2,3-dichloro-phenoxy)-piperidin-1-yl]-ethyl}-cyclohexyl)-amide], the results for the inhibition constant (Ki) in assay [1], in assay [2] and in assay [3] were 5 nM, 9 nM and 319 nM, respectively.
For the compound `O=C(N[C@H]1CC[C@H](CCN2CCC(Oc3ccncc3)CC2)CC1)c1ccnc2ccccc12` [Example 74, Quinoline-4-carboxylic acid (trans-4-{2-[4-(Pyridin-4-yloxy)-piperidin-1-yl]-ethyl}-cyclohexyl)-amide], the values for the Ki in assay [1], in assay [2] and in assay [3] were 208 nM, 60 nM and 3000 nM, respectively.

Values taken from patent US7795437B2, “Ether derivatives” (Hoffmann-La Roche Inc., priority 2006, dated 2010).
